Converted amounts (≈) assume the structure as drawn. Where two headings read alike, the source gives them in different places.
What was measured:
AF-infected mice = assay: Animal survival experiment in AF-infected immunosuppressed mice (36 days); type: in vivo; conditions: group 8: 1 mg/kg i.t.
Aspergillus fumigatus = assay: In vitro antifungal activity (NCCLS M27-A; MIC/MFC, hyphal growth); type: cell-based; conditions: for MFC: Aspergillus fumigatus
Method: The antifungal activity of mAb (MPS5.44)-alliinase conjugates was determined according to the conditions of National Committee for Clinical Laboratory Standards (NCCLS) document M27-A. Resting conidia (3×10^4 conidia/well) were seeded in 96-well plates and incubated for 4 hours at 37° C. with RPMI/MOPS (100 μl). mAb-alliinase conjugate was applied in serial 2-fold dilutions, in triplicates and incubated for 30 min at 37° C., then washed four times followed by the addition of alliin (0.5 mg/ml). Hyphal growth was monitored by microscopic observation as well as by optical density (OD595), or by fluorescence of the strain CBS/DsRed (excitation at 540 nm, emission at 595 nm). The MIC of the conjugate was determined after 72 hours. The wells in which no fungal germination was detected, were scraped and plated on Sabouraud plates and the number of colonies was counted after 72 hours to determine the MFC. As a control, the antifungal activity was also determined by incubating AF as above with non-conjugated alliinase or with conjugates consisting of the non-specific mAb and alliinase.

For C[C@@H]1[C@H](O)[C@@H](C)/C=C/C=C/C=C/C=C/C=C/C=C/C=C/[C@H](O[C@@H]2O[C@H](C)[C@@H](O)[C@H](N)[C@@H]2O)C[C@@H]2O[C@](O)(C[C@@H](O)C[C@@H](O)[C@H](O)CC[C@@H](O)C[C@@H](O)CC(=O)O[C@H]1C)C[C@H](O)[C@H]2C(=O)O [Amphotericin B], the MST (AF-infected mice; n=10) was 18 days and the “survival at the end of the experiment” value (AF-infected mice; n=10, 36 d) was 30%.

In the case of C=CCS[S+]([O-])CC=C (stereo not drawn) [allicin, diallyl-dithiosulfinate], the MFC (Aspergillus fumigatus; read-out: MFC, resting conidia) is reported as 15 µg/mL (≈ 92.4 µM), the MFC (Aspergillus fumigatus; read-out: MFC, swollen conidia) is reported as 7.5 µg/mL (≈ 46.2 µM) and the MFC (Aspergillus fumigatus; pure allicin, data not shown, read-out: MFC, hyphae) is reported as 30 µg/mL (≈ 185 µM).

For (+)S-Allyl-cysteine sulfoxide [alliin], the “growth of Aspergillus cells treated with one component only” value (Aspergillus fumigatus; alliin without conjugate, or conjugate without alliin) was “not inhibited in their growth”.
